Consider twelve molecules from ChEMBL document CHEMBL3585315, “Discovery of mammalian target of rapamycin (mTOR) kinase inhibitor CC-223” (J Med Chem, 2015).

Data set [1] is described as follows: Metabolic stability in rat S9 fraction assessed as compound remaining measured at 60 mins. Type of data set: ADME. Conditions: read-out: Stability.
Data set [2] is described as follows: Clearance in rat at 2 mg/kg, iv. The data set is classed as ADME, organism-based. The following applies: in vivo.
A short description of data set [3]: Tmax in rat at 10 mg/kg, po. The data set is classed as ADME, organism-based. Conditions: in vivo.
Data set [4] can be described thus: Oral bioavailability in rat at 10 mg/kg. Type of data set: ADME, organism-based. Conditions: in vivo.
Data set [5] can be described thus: Cmax in rat at 10 mg/kg, po. The following applies: in vivo. Also noted: dose 10 mg/kg, route oral. Type of data set: ADME, organism-based.
Data set [6] can be described thus: AUC (0 to infinity) in rat at 10 mg/kg, po. Type of data set: ADME, organism-based. Conditions: in vivo. Also noted: dose 10 mg/kg, route oral, time infinity.
Data set [7] concerns the target Phosphatidylinositol 4,5-bisphosphate 3-kinase catalytic subunit alpha isoform (Homo sapiens, UniProt P42336). In words: Inhibition of PI3K-alpha (unknown origin) by mobility shift assay.
A further data set can be described thus: cells. The following applies: Homo sapiens, PC-3, 1 h.
For data set [8], the species on record is Mus musculus. In words: animal or person. The following applies: PC-3, po, 8 h, read-out: INH.
Data set [9] in a line: AUC (0 to infinity) in rat at 5 mg/kg, po. On the set-up: dose 5 mg/kg, time infinity, route oral. Type of data set: ADME, organism-based. The following applies: in vivo.
For data set [10], the species on record is Mus musculus. As to the kind of experiment: animal or person. Conditions: PC-3, po, 8 h, read-out: INH. This is another data set of the same source.
Data set [11] is filed under the species Mus musculus. In words: animal or person. The following applies: PC-3, po, 4 h, read-out: INH.
The species named for data set [12] is Mus musculus. As to the kind of experiment: animal or person. Conditions: PC-3, po, 2 h, read-out: INH.
Data set [13] in a line: Cmax in rat at 5 mg/kg, po. Type of data set: ADME, organism-based. The following applies: in vivo. On the set-up: dose 5 mg/kg, route oral.
For data set [14], the species on record is Mus musculus. As to the kind of experiment: animal or person. The following applies: PC-3, po, 4 h, read-out: INH. This is another data set of the same source.
Data set [15] is filed under the species Mus musculus. As to the kind of experiment: animal or person. Conditions: PC-3, po, 2 h, read-out: INH. This is another data set of the same source.
For data set [16], the species on record is Mus musculus. As to the kind of experiment: animal or person. The following applies: PC-3, po, 24 h, read-out: INH.
The species named for data set [17] is Mus musculus. As to the kind of experiment: animal or person. The following applies: PC-3, po, 24 h, read-out: INH. This is another data set of the same source.
The test system of data set [18] is PC-3. Conditions: Homo sapiens, TDE = time-dependent effect.
Data set [19] has as its system PC-3. The following applies: Homo sapiens.
Data set [20] concerns PC-3. As to the kind of experiment: Antitumor activity against human PC3 cells xenografted in mouse assessed as tumor volume reduction at 100 mg/kg, po bid with 10 hrs separation between morning and evening doses for 21 days relative to control. The data set is classed as functional. Also noted: scale not given: the % may be the effect or the level left. (In general: A xenograft is tissue or cells of one species grown in another, often human tumour cells in immunodeficient mice.)

Data set [21] is described as follows: Tmax in rat at 5 mg/kg, po. The data set is classed as ADME, organism-based. The following applies: in vivo.
Data set [22] is described as follows: Oral bioavailability in rat at 5 mg/kg. The data set is classed as ADME, organism-based. The following applies: in vivo.

Phosphatidylinositol 4,5-bisphosphate 3-kinase catalytic subunit alpha isoform, sequence (P42336 whole entry, canonical isoform): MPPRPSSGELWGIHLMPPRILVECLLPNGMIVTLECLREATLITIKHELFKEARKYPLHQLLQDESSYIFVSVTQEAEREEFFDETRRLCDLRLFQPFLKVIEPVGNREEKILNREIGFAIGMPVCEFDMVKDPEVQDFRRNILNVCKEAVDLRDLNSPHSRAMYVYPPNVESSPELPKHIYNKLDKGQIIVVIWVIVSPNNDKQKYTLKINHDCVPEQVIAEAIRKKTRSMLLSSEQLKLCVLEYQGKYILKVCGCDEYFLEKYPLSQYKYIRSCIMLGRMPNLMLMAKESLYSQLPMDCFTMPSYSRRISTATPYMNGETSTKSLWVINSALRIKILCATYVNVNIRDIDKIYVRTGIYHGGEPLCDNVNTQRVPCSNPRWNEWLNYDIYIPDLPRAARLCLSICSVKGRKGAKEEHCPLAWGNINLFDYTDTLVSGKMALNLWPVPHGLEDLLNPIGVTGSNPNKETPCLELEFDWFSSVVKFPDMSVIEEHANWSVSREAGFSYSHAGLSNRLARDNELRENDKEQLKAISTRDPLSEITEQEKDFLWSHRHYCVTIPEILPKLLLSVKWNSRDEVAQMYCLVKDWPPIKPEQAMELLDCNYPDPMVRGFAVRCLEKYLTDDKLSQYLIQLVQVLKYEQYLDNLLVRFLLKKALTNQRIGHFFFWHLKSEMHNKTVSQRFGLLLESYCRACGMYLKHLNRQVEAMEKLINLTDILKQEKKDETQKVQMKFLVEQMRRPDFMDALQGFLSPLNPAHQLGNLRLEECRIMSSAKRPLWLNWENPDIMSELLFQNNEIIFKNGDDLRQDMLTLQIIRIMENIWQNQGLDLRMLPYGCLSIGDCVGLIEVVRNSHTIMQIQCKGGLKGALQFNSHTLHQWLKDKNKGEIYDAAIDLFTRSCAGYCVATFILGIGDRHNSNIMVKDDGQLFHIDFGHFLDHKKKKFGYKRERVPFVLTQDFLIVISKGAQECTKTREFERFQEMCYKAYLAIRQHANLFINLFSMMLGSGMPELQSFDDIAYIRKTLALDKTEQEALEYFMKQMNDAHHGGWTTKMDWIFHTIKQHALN

By clearance is commonly meant a measure of how efficiently the substance is removed, as volume per time. The term Tmax denotes the time at which the peak concentration occurs. For orientation: bioavailability means the share of a dose that reaches the circulation, judged against a reference dose that is usually intravenous. By Cmax is commonly meant the peak of the concentration-time curve. By AUC(0-inf) is commonly meant total exposure, with the tail of the curve extrapolated. `O=c1[nH]c2ncc(-c3ccc(-c4nc[nH]n4)cc3)nc2n1CCC1CCOCC1`: the remaining at 1 h in data set [1] came to 93%. This molecule returned a clearance in data set [2] of 32 mL/min/kg. The Tmax in [3] was determined as 1 h. The bioavailability in data set [4] turned out to be 0.85%. In data set [5], this molecule displayed a Cmax of 24 nM. The AUC(0-inf) in data set [6] amounted to 0.11 µM·h.
A word on the IC50: it is the concentration that inhibits the measured activity by half. Turning to `CC(C)(O)c1ccc(-c2cnc3c(n2)N(C2CCOCC2)CC(=O)N3)cn1`, the IC50 in data set [7] came to 4.7 µM.
As to `O=C1CN(CCC2CCOCC2)c2nc(-c3ccc(-c4nc[nH]n4)cc3)cnc2N1`, in [1], the remaining at 1 h came out at 61%. Also, the clearance in data set [2] turned out to be 13.8 mL/min/kg. The Cmax in [5] is less than 2.13 nM.
On to `CC(C)(O)c1ccc(-c2cnc3c(n2)N(CC2CCCCC2)CC(=O)N3)cn1`, for which the IC50 in data set [7] was 17.7 µM. The remaining at 1 h in data set [1] is 16%.
Turning to `CO[C@H]1CC[C@H](CN2C(=O)CNc3ncc(-c4ccc(C(C)(C)O)nc4)nc32)CC1`, the IC50 in data set [7] worked out at 4.7 µM. Besides, the remaining at 1 h in [1] worked out at 55%.
For the molecule `COCCN1CC(=O)Nc2ncc(-c3ccc(C(C)(C)O)nc3)nc21`, in data set [7], the IC50 came to 10.5 µM.
Take `CO[C@H]1CC[C@@H](N2CC(=O)Nc3ncc(-c4ccc(C(C)(C)O)nc4)nc32)CC1`: the results for the IC50 (in the data set “cells”; in data set [7]) were 0.33 µM and 11.1 µM, respectively. Further, the inhibition in vivo at 100 mg/kg in the data set filed under Mus musculus [8] turned out to be 52%; in the data set filed under Mus musculus [10], 59%; in the data set filed under Mus musculus [11], 54%; in the data set listed under Mus musculus [12], 72%; in the data set filed under Mus musculus [14], 34%; in the data set filed under Mus musculus [15] it was 80%. The values for the inhibition in vivo at 100 mg/kg in the data set listed under Mus musculus [16] and in the data set listed under Mus musculus [17] were 70% and 45%, respectively. The same molecule came in with an AUC(0-inf) in data set [9] of 26.6 µM·h. The molecule further had a Cmax in [13] of 2770 nM.
For the molecule `CC(C)(O)c1ccc(-c2cnc3c(n2)N(CC2CCOCC2)C(=O)CN3)cn1`, the IC50 in the data set “cells” was 0.13 µM; in [7] it was 3.8 µM. The inhibition in vivo at 100 mg/kg in the data set listed under Mus musculus [8] turned out to be 94%; in the data set listed under Mus musculus [10], 81%; in the data set listed under Mus musculus [11], 93%; in the data set listed under Mus musculus [14] it was 86%; in the data set filed under Mus musculus [16], 91%; in the data set filed under Mus musculus [17], 80%. Moreover, the AUC(0-inf) in [9] was found to be 9.9 µM·h. Moreover, in data set [1], the remaining at 1 h was determined as 83%. This molecule showed a Cmax in [13] of 1600 nM.
Take `CC(C)(O)c1ccc(-c2cnc3c(n2)N(CCC2CCOCC2)CC(=O)N3)cn1`: in the data set “cells”, the IC50 was 0.11 µM. The inhibition in vivo at 100 mg/kg in the data set listed under Mus musculus [8] stood at 64%; in the data set filed under Mus musculus [10], 67%; in the data set listed under Mus musculus [11] it was 63%; in the data set filed under Mus musculus [12] it was 74%; in the data set filed under Mus musculus [14], 63%; in the data set filed under Mus musculus [15] it was 87%. In addition, the figures for the inhibition in vivo at 100 mg/kg in the data set filed under Mus musculus [16] and in the data set filed under Mus musculus [17] were 0% and 28%, respectively. In data set [9], this molecule yielded an AUC(0-inf) of 11 µM·h. In addition, the remaining at 1 h in data set [1] was 95%. Moreover, the TGI entry is “tde” with PC-3 [18] and “Dose-dependent effect” in the data set on PC-3 [19]. Further, the clearance in data set [2] came to 23 mL/min/kg. The Activity in the data set with PC-3 [20] is recorded as 72%. The Tmax in [21] is 1.5 h. The same molecule had a Cmax in data set [13] of 1500 nM. This molecule came in with a bioavailability in data set [22] of 100%.
On to `CC(C)(O)c1ccc(-c2cnc3c(n2)N([C@H]2CC[C@@H](O)CC2)C(=O)CN3)cn1`, for which the IC50 in data set [7] came to 2.8 µM.
Consider `CO[C@H]1CC[C@@H](CN2CC(=O)Nc3ncc(-c4ccc(C(C)(C)O)nc4)nc32)CC1`, for which the IC50 in data set [7] worked out at 7.6 µM. Further, in data set [1], the remaining at 1 h amounted to 39%.
With `CC(C)(O)c1ccc(-c2cnc3c(n2)N(C2CCOCC2)C(=O)CN3)cn1`, the IC50 in [7] was 3.2 µM.
